# Experiments:
# Assay type in all cases: cell-based, human
# hESCs (BG01) [1] = assay: Mesendoderm generation from hESCs with BIO in defined media (Q-PCR, immunostaining); conditions: BIO 2 μM
# Procedure: hESCs (BG01) were plated as per the conditions specified in Example 1 in defined media. After ˜16-24 hours, BIO (2 μM) was added to cultures.
# hESCs (BG02) = assay: BIO added to hESCs grown in MEF-CM (immunostaining)
# Procedure: hESCs (BG02) grown in MEF-CM on Matrigel coated plates, were passaged in MEF-CM plus BIO (2 μM) over 4 days.
# hESCs (BG01) [2] = assay: Mesendoderm generation from hESCs with Wnt3a in defined media (Q-PCR, immunostaining); conditions: Wnt3a 25 ng/ml
# Procedure: hESCs (BG01) were plated as per the conditions specified in Example 1 in defined media. After ˜16-24 hours, human Wnt3a (25 ng/ml; R&D Systems) was added to cultures.
# hESC (BG02) = assay: Generation of definitive endoderm: BIO and SB431542 followed by high Activin A (Q-PCR); conditions: defined media minus IGF-I and Heregulin plus Activin A 100 ng/ml, 4 days, after 4 days BIO/SB431542
# Procedure: hESC were taken and grown in defined media in the presence of BIO (2 μM) and SB431542 (20 μM) for 4 days. The cells were then split 1-4 into the same media or defined media minus IGF-I and heregulin and with additional Activin A (100 ng/ml) for an additional 4 days (FIG. 22). Samples (BG02) were taken every 2 days up to 8 days for Q-PCR analysis. […] This cell type persisted in the presence of BIO/SB431542.
# [3] = system: cells passaged in BIO/SB431542 (MMCs); assay: Differentiation of MMCs to endoderm with Activin A after removal of BIO/SB431542 (Q-PCR); conditions: 6 passages in BIO/SB431542, then Activin A to 100 ng/ml without IGF-I, heregulin; 4 day period
# Description: We consider these cells to be pre-mesoderm and pre-endoderm but no longer hESCs. This raised the possibility that these cells retained a multipotent differentiation potential that could be manifested following removal of BIO/SB431542 and by addition of cell differentiation factors. To test the possibility that the cells in BIO/SB431542-containing media could be further differentiated into endoderm, we grew cells for 6 passages in BIO/SB431542, then removed BIO/SB431542, and IGF-I, heregulin (two activators of PI3K activity) from the media and supplemented with Activin A to 100 ng/ml. These are conditions that support differentiation of hESCs to definitive endoderm. Over a 4 day period following the switch to the endoderm differentiation conditions we observed increases in Sox17 and CXCR4 transcripts while Nanog, T and eomesodermin transcripts remained low (FIG. 32). […] We propose that the BIO/SB431542 treated cells could also be differentiated into mesoderm and perhaps other lineages (ectoderm) if exposed to the appropriate specification factors. For example, we believe that BIO/SB431542-treated cells could be converted to mesoderm cells if BIO/SB431542 was removed and BMP4 was added to the media.
# [4] = involving an epithelial to mesenchymal transition
# [5] = BIO 2 μM, 4 days, cells passaged with trypsin
# [6] = BIO, cells passaged with collagenase
molecule,measurement,setting,value
"O=C1Nc2cc(Br)ccc2/C1=C1/Nc2ccccc2/C1=N\O [BIO, (2′Z,3′E)-6-Bromoindirubin-3′-oxime]",Snail localisation (immunostaining),hESCs (BG01) [1]; 48 hours,accumulates in the nucleus
same,T/brachyury levels (immunostaining),hESCs (BG01) [1]; 48 hours,increased
same,E-cadherin and Nanog (immunostaining),hESCs (BG01) [1]; after 48 hours,downregulated
same,Nanog transcripts (Q-PCR),hESCs (BG01) [1]; defined media,decreased by 48 hours
same,T and MixL1 mRNA levels (Q-PCR),hESCs (BG01) [1]; defined media,increased over the first 24 hours then decreased thereon
same,differentiation outcome,hESCs (BG01) [1]; [4],caused hESCs to differentiate to mesendoderm
same,differentiation outcome,hESCs (BG02); BIO 2 μM,promotes an epithelial to mesenchymal transition and differentiation to mesendoderm
same,Oct4 and E-cadherin (immunostaining),hESCs (BG02); [5],downregulation
same,T/Brachyury (immunostaining),hESCs (BG02); [5],upregulation
same,Nanog and E-cadherin (immunostaining),hESCs (BG02); [6],downregulation
same,T/Brachyury (immunostaining),hESCs (BG02); [6],upregulation
"Wnt3a: canonical Wnt signaling molecule; human Wnt3a (R&D Systems) (protein, UniProt P56704 19-352, looked up) Protein Wnt-3a: SYPIWWSLAVGPQYSSLGSQPILCASIPGLVPKQLRFCRNYVEIMPSVAEGIKIGIQECQHQFRGRRWNCTTVHDSLAIFGPVLDKATRESAFVHAIASAGVAFAVTRSCAEGTAAICGCSSRHQGSPGKGWKWGGCSEDIEFGGMVSREFADARENRPDARSAMNRHNNEAGRQAIASHMHLKCKCHGLSGSCEVKTCWWSQPDFRAIGDFLKDKYDSASEMVVEKHRESRGWVETLRPRYTYFKVPTERDLVYYEASPNFCEPNPETGSFGTRDRTCNVSSHGIDGCDLLCCGRGHNARAERRREKCRCVFHWCCYVSCQECTRVYDVHTCK",T/brachyury levels (immunostaining),hESCs (BG01) [2]; 48 hours,increased
same,β-catenin and Snail localisation (immunostaining),hESCs (BG01) [2]; 48 hours,accumulate in the nucleus
same,E-cadherin and Nanog (immunostaining),hESCs (BG01) [2]; after 48 hours,downregulated
same,Nanog transcripts (Q-PCR),hESCs (BG01) [2]; defined media,decreased by 48 hours
same,"T, Eomes and MixL1 mRNA levels (Q-PCR)",hESCs (BG01) [2]; defined media,"increased over 1-2 days, then decreased by day 5"
same,differentiation outcome,hESCs (BG01) [2]; [4],caused hESCs to differentiate to mesendoderm
"Activin A: growth factor (R&D Systems), used at high levels (100 ng/ml) to produce definitive endoderm (protein, UniProt P08476 311-426, looked up) Inhibin beta A chain: GLECDGKVNICCKKQFFVSFKDIGWNDWIIAPSGYHANYCEGECPSHIAGTSGSSLSFHSTVINHYRMRGHSPFANLKSCCVPTKLRPMSMLYYDDGQNIIKKDIQNMIVEECGCS","differentiation after switch to Activin A (Q-PCR: Sox17, CXCR4 upregulated, FoxF1 absent)",hESC (BG02),further differentiated into DE
same,"Nanog, T and eomesodermin transcripts (Q-PCR)",[3],remained low
same,Sox17 and CXCR4 transcripts (Q-PCR),[3],increases
